Here are results for four compounds from BindingDB's records for doi:10.1021/jm010576e (Chiba University, 2002).

For orientation: Ki means the dissociation constant of the complex between target and ligand, obtained from inhibition or displacement.

The assay in a line: Binding affinity using guinea pig brain membrane preparations, towards Opioid receptor delta 1 using [3H]DPDPE as radioligand.
Regarding `CC[C@@H]1CN2CCc3c([nH]c4cccc(O)c34)[C@@H]2C[C@@H]1/C(=C\OC)C(=O)OC`, the affinity corresponds to a Ki of 30.9 µM.

As to `CC[C@@H]1CN2CC[C@@]3(O)C(=Nc4cccc(OC)c43)[C@@H]2C[C@@H]1/C(=C\OC)C(=O)OC`, the Ki was 0.155 µM. In the case of `CC[C@@H]1CN2CCc3c([nH]c4cccc(OC)c34)[C@@H]2C[C@@H]1/C(=C\OC)C(=O)OC` [CHEBI:6956], the Ki turned out to be 0.06 µM. The compound `CC[C@@H]1CN2CCc3c([nH]c4ccccc34)[C@@H]2C[C@@H]1/C(=C\OC)C(=O)OC` [CHEBI:70073] displayed a Ki of 2.88 µM.
